Test results reported in article PMC12663137 (Nature Communications, 2025).
Several values for one entry are separate records, joined by “and”; a condition that tells them apart may be missing. Identical values can stand only once.

What was measured:
[1] = target: T1, SV2AWT (Homo sapiens, UniProt Q7L0J3); assay: Competitive displacement of 10 nM 3H-UCB-J, SV2AWT membranes (Fig. 1A); format: binding; conditions: read-out: Binding of 3H-UCB-J (%), SV2A_WT
T1 construct: expressed in transfected cells; host or cells: HEK293 (ATCC CRL-1573), crude membranes
Experimental: (§1) Ligand binding studies were carried out using crude membranes prepared from HEK293 cells (ATCC, CRL-1573) overexpressing mVenus-SV2AWT or SV2AEM. Membranes were prepared either from transiently transfected cells or from baculovirus-infected cells as described previously. Cells were washed with DPBS (Ca^2+ and Mg^2+ free), followed by resuspending in cold SH buffer (10 mM HEPES-Tris pH 7.4, 320 mM sucrose) containing protease inhibitor cocktail (MedChemExpress) to a density of 10^7 cells/ml. This cell suspension was homogenized by passing through a bead homogenizer (Isobiotec) with 10-micron clearance bead on ice. The lysate was then centrifuged at 4000 × g for 5 min at 4 °C, and the supernatant was aliquoted, frozen in liquid nitrogen, and stored at −80 °C. The mVenus fluorescence estimated using fluorescence size-exclusion chromatography (FSEC) was used to normalize expression levels of mVenus-SV2A mutants studied as detailed previously. For all binding studies, membranes containing […] protein (estimated by BCA method) per reaction were used.
(§2) To obtain dose-response curves of studied SV2A ligands, membranes diluted in 0.2 ml binding buffer (50 mM Tris-Cl, pH 7.4, and 2 mM MgCl2) were incubated with indicated concentrations of ligands for 30 min at 4 °C. […] The binding reaction was arrested by trapping membranes on Unifilter-GF/C 96-well filter plates (Revvity) pre-soaked with 0.1%(w/v) polyethyleneimine (PEI). Membranes were then washed four times with 0.2 ml of cold binding buffer, dried, and 40 µl of scintillation liquid was added to each well. Radioactivity was monitored in MicroBeta2 plate counter (Revvity). Estimates for IC50 were obtained from fitting the data to three-parameter dose-response curves using GraphPad Prism 10.

[2] = target: T2, SV2AEM (Homo sapiens, UniProt Q7L0J3); assay: Competitive displacement of 10 nM 3H-UCB-J, SV2AEM membranes (Fig. 1A); format: binding
T2 construct: expressed in transfected cells; host or cells: HEK293 (ATCC CRL-1573), crude membranes (transient transfection or baculovirus)
Experimental: as §1, §2

[3] = target: T3, SV2A WT, W300A, W666A, D670A (Homo sapiens, UniProt Q7L0J3); assay: Displacement of 10 nM 3H-UCB-J by levetiracetam, binding site mutations (Fig. 2B); conditions: read-out: Binding of 3H-UCB-J (%), WT
T3 construct: expressed in transfected cells; host or cells: HEK293 (ATCC CRL-1573), crude membranes
Experimental: as §1, with “Membranes” for “Ligand binding studies were carried out using crude membranes prepared from HEK293 cells (ATCC, CRL-1573) overexpressing mVenus-SV2AWT or SV2AEM. Membranes”
as §2

[4] = test system: SV2A WT, W300A, W666A, D670A; assay: as above; set-up: species or system human; conditions: Fig. 2B
Experimental: as §1, with “Membranes” for “Ligand binding studies were carried out using crude membranes prepared from HEK293 cells (ATCC, CRL-1573) overexpressing mVenus-SV2AWT or SV2AEM. Membranes”
as §2

[5] = target: T4, SV2A WT and mutants (Homo sapiens, UniProt Q7L0J3); assay: Relative binding of levetiracetam: 3H-UCB-J (10 nM) binding in presence of 10 µM levetiracetam (Fig. 2C); conditions: WT; 10 µM levetiracetam; SV2AWT defined as 100%
T4 construct: expressed in transfected cells; host or cells: HEK293 (ATCC CRL-1573), crude membranes
Experimental: (§3) Data are shown as mean ± s.d.; n = 6 biological replicates. […] Data shown as mean ± s.d.; n = 6 biological replicates. D Superposition of SV2A-apo (gray) and SV2A–Lev (green), showing helix-to-loop transition and inward movement of TM1 in levetiracetam-bound state. […] Source data for (B, C) are provided as a Source data file.
as §1

[6] = target: T5, SV2A WT and mutants (Homo sapiens, UniProt Q7L0J3, C693A); assay: as above; conditions: C693A; 10 µM levetiracetam; SV2AWT defined as 100%
T5 construct: expressed in transfected cells; host or cells: HEK293 (ATCC CRL-1573), crude membranes
Experimental: as §3, §1

[7] = target: T6, SV2A WT and mutants (Homo sapiens, UniProt Q7L0J3, N690A); assay: as above; conditions: N690A
T6 construct: expressed in transfected cells; host or cells: HEK293 (ATCC CRL-1573), crude membranes
Experimental: as §3, §1

T6 sequence (Q7L0J3 whole entry N690A): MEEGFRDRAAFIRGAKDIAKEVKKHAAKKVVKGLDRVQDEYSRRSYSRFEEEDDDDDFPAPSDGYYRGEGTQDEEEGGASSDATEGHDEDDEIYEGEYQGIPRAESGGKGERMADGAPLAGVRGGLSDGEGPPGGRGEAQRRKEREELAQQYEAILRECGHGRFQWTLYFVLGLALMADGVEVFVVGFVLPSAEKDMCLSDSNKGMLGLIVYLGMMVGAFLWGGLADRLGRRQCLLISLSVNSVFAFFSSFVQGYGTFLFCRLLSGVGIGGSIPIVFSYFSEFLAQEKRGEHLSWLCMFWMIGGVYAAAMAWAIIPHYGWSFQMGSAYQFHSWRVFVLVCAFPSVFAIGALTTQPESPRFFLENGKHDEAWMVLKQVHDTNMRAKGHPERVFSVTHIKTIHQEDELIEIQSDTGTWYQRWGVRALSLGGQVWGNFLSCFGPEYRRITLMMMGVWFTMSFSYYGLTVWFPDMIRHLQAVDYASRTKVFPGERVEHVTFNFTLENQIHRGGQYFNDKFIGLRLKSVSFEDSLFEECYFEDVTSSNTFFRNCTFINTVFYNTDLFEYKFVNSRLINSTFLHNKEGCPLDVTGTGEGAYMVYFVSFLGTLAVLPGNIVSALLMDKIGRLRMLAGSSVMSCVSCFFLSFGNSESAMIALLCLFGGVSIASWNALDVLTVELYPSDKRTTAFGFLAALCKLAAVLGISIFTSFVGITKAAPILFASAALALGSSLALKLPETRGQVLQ
T3 sequence (Q7L0J3 whole entry W300A/W666A/D670A): as the sequence (Q7L0J3 whole entry N690A) above, with W300A, W666A, D670A, A690N counted along it
T1 sequence (Q7L0J3 whole entry): as the sequence (Q7L0J3 whole entry N690A) above, with A690N counted along it
T4 sequence (Q7L0J3 whole entry, change not shown): as the sequence (Q7L0J3 whole entry N690A) above, with A690N counted along it
T5 sequence (Q7L0J3 whole entry C693A): as the sequence (Q7L0J3 whole entry N690A) above, with A690N, C693A counted along it
T2 sequence (Q7L0J3 141-742): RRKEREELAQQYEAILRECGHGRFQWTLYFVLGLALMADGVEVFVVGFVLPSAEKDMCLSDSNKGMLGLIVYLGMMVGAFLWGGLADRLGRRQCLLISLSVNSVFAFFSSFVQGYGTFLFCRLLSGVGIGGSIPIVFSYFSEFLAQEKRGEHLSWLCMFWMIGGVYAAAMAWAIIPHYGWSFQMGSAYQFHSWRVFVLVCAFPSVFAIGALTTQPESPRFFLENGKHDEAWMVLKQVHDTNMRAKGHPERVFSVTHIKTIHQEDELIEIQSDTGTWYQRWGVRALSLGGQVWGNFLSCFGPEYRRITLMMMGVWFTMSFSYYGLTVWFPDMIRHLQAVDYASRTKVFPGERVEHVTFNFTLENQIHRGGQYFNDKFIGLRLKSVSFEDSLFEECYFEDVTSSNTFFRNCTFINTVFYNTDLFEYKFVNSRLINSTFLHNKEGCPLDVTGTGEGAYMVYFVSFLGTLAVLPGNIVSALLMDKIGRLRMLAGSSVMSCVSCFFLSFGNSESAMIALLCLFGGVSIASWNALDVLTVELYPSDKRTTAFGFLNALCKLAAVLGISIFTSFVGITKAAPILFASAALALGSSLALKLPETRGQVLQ

CC[C@@H](C(N)=O)N1CCCC1=O [levetiracetam]
remaining activity at 300 µM ([1]; Log [Levetiracetam] (M) -3.523): 10.8%
remaining activity at 100 µM ([1]; Log [Levetiracetam] (M) -4.000): 22.8%
remaining activity at 10 µM ([1]; Log [Levetiracetam] (M) -5.000): 66.1%
remaining activity at 1 µM ([1]; Log [Levetiracetam] (M) -6.000): 95%
remaining activity at 0.1 µM ([1]; Log [Levetiracetam] (M) -7.000): 95.2%
remaining activity at 0.01 µM ([1]; Log [Levetiracetam] (M) -8.000): 92.5%
IC50 [2]: 9.5 µM
binding response of SV2AEM vs wild-type SV2A ([2]; competition with 3H-UCB-J): comparable to those of wild-type SV2A
remaining activity at 10 µM ([2]; read-out: Binding of 3H-UCB-J (%), SV2A_EM, Log [Levetiracetam] (M) -5.000): 53.7%
3H-UCB-J binding at 1000 µM ([3]; Log [Levetiracetam] (M) -3.000): 6.22%
3H-UCB-J binding at 100 µM ([3]; Log [Levetiracetam] (M) -4.000): 31.9%
3H-UCB-J binding at 3 µM ([3]; Log [Levetiracetam] (M) -5.523): 73.5%
3H-UCB-J binding at 1 µM ([3]; Log [Levetiracetam] (M) -6.000): 84.4%
reduction of levetiracetam binding by mutating Trp300, Trp666, Asp670 [4]: ~1000 fold
Levetiracetam Binding (%) [5]: 102.09% and 117.44% and 93.09% and 74.67% and 113.64% and 99.03%
Levetiracetam Binding (%) [6]: 135.59% and 126.18% and 71.93% and 77.61% and 128.23% and 117.60%
effect of mutation on levetiracetam binding [7]: enhances levetiracetam binding
Levetiracetam Binding (%) ([7]; 10 µM levetiracetam, SV2AWT defined as 100%): 143.32% and 133.74% and 159.43% and 149.90% and 155.36% and 156.86%
